The results in this text go back to ChEMBL document CHEMBL5316330, “Design of an Ultralow Molecular Weight Heparin That Resists Heparanase Biodegradation” (J Med Chem, 2023).

The source made the active and inactive calls. The rule behind the calls is not given here.

Series [1] in a line: Stability of compound assessed as heparanase-mediated compound degradation by measuring retention time at 20 ug incubated overnight by LC-MS analysis (reference value: 10 mins). The class given is physicochemical. The following applies: dose 20 µg.
Series [2] concerns the target T1, Coagulation factor X (Homo sapiens, UniProt P00742). Description: Potency index, ratio of Enoxaparin IC50 to test compound IC50 for factor Xa (unknown origin) by ACTICHROME heparin assay.
For series [3], the system named is Mus musculus. Description: Anticoagulant activity in C57BL/6 mouse model of non-occlusive venous thrombosis assessed as average IVC weight at 12 ug/g, sc treated for 1 hr prior to electrolytic injury and 24 hrs after injury (reference value: 31.5 +/- 2.3 mg). The class given is functional. As to conditions: dose 12 µg/g, time 25 hrs.
For series [4], the target named is T1, Coagulation factor X. Description: Inhibition of human factor Xa using S-2765 as substrate preincubated with antithrombin for 3 mins followed by incubation with factor Xa for 2 mins and further incubated with substrate for 5 mins by absorbance based assay.
Series [5] has as its system Mus musculus. Description: Anticoagulant activity in C57BL/6 mouse model of non-occlusive venous thrombosis assessed as average bleeding time at 12 ug/g, sc treated for 1 hr prior to electrolytic injury and 24 hrs after injury (reference value: 81 +/- 3 mg). The series is classed as functional. The following applies: dose 12 µg/g, time 25 hrs.
The subject of series [6] is Mus musculus. Kind of series: Anticoagulant activity in C57BL/6 mouse model of non-occlusive venous thrombosis assessed as average IVC weight at 4 ug/g, sc treated for 4 hrs prior to electrolytic injury and 24 hrs after injury (reference value: 31.5 +/- 2.3 mg). The class given is functional. As to conditions: dose 4 µg/g, time 28 hrs.
In series [7] the test system is Mus musculus. Kind of series: Anticoagulant activity in C57BL/6 mouse model of non-occlusive venous thrombosis assessed as inhibition of factor Xa in plasma at 12 ug/g, sc treated for 1 hr prior to electrolytic injury and 24 hrs after injury. The series is classed as functional. As to conditions: dose 12 µg/g, time 25 hrs.
Series [8] in a line: Stability of compound assessed as heparanase-mediated compound degradation by measuring retention time at 20 ug incubated overnight by LC-MS analysis (reference value: 17 mins). As to conditions: dose 20 µg. The series is classed as physicochemical.
Series [9] deals with T1, Coagulation factor X. Description: Inhibition of human factor Xa using S-2765 as substrate at 7 to 3600 ng/ml preincubated with antithrombin for 3 mins followed by incubation with factor Xa for 2 mins and further incubated with substrate for 5 mins by absorbance based assay. The following applies: dose 7-3600 ng/ml, time 10.0 min.

T1 sequence (P00742 41-179 limits assumed): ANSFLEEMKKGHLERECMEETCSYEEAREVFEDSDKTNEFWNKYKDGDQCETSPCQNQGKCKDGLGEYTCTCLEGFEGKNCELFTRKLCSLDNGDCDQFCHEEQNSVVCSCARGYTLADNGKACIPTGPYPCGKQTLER
T1 sequence (P00742 235-488 limits assumed): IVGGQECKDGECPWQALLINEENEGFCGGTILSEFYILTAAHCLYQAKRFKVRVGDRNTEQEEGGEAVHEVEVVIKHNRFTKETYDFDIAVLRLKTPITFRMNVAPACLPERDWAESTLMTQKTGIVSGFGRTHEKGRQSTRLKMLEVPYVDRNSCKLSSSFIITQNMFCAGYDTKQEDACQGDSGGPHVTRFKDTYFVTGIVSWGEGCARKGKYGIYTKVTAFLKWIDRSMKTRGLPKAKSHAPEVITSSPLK

On to `O=C(O)[C@H]1O[C@@H](O[C@H]2[C@H](O)[C@@H](NS(=O)(=O)O)[C@@H](O[C@@H]3[C@H](O)[C@@H](OS(=O)(=O)O)[C@H](O[C@H]4[C@H](OS(=O)(=O)O)[C@@H](NS(=O)(=O)O)[C@@H](O[C@H]5[C@H](O)[C@@H](OS(=O)(=O)O)[C@H](O[C@@H]6[C@H](O)[C@@H](NS(=O)(=O)O)[C@@H](O[C@H]7[C@H](O)[C@@H](O)[C@H](Oc8ccc([N+](=O)[O-])cc8)O[C@@H]7C(=O)O)O[C@@H]6COS(=O)(=O)O)O[C@@H]5C(=O)O)O[C@@H]4COS(=O)(=O)O)O[C@H]3C(=O)O)O[C@@H]2COS(=O)(=O)O)[C@H](O)[C@@H](O)[C@@H]1O`, for which the Retention_time in [1] is 15 min. The fold change (FC) on Coagulation factor X [2] stood at 3. Moreover, the Activity in the series on Mus musculus [3] was 18.8 mg; with Mus musculus [5] it was 143 mg; in the series with Mus musculus [6], 13.9 mg; in the series with Mus musculus [7], 0.55 IU/ml. The same compound gave an IC50 against Coagulation factor X [4] of 177 nM.

For the compound `O=C(O)[C@H]1O[C@@H](Oc2ccc([N+](=O)[O-])cc2)[C@H](O)[C@@H](O)[C@@H]1O[C@H]1O[C@H](COS(=O)(=O)O)[C@@H](O[C@@H]2O[C@@H](C(=O)O)[C@H](O[C@H]3O[C@H](COS(=O)(=O)O)[C@@H](O[C@@H]4O[C@H](C(=O)O)[C@@H](O[C@H]5O[C@H](COS(=O)(=O)O)[C@@H](O)[C@H](O)[C@H]5NS(=O)(=O)O)[C@H](O)[C@H]4O)[C@H](OS(=O)(=O)O)[C@H]3NS(=O)(=O)O)[C@H](O)[C@H]2OS(=O)(=O)O)[C@H](O)[C@H]1NS(=O)(=O)O`, the Retention_time in series [8] is on record as 22 min. Also, the inhibition entry on Coagulation factor X [9] is “inactive”.
